# Laboratory results reported in patent US9113629B2, “4-amino-6-(4-substituted-phenyl)-picolinates and 6-amino-2-(4-substituted-phenyl)-pyrimidine-4-carboxylates and their use as herbicides” (DOW AGROSCIENCES LLC, priority 2013, dated 2015).
# Where two headings read alike, the source gives them in different places.
# Key:
# [1] = tested on: Key Broadleaf Weed and Crop Species; assay: Post-emergent Test II herbicidal activity (Table 5); format: in vivo; details: post-emergence, 336 h, 14 days after application
# Procedure, shortened: (§1)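 Greenhouse-grown plants at first or second true leaf stage were sprayed post-emergence with compound in acetone/DMSO-based aqueous spray containing crop oil concentrate and surfactant, at 187 L/ha, highest rate plus ½× to 1/16× dilutions. After 14 d, injury was scored visually versus untreated plants, 0 (none) to 100% (complete kill).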
# [2] = tested on: Key Grass and Sedge Weeds as well as Grass Crops; assay: Post-emergent Test II herbicidal activity (Table 6); format: in vivo; details: post-emergence, 336 h; for pest or weed control at 70 g/ha: application rate 70 g ai/ha; for pest or weed control at 140 g/ha: application rate 140 g ai/ha
# Procedure, shortened: as §1
# [3] = CYPES: yellow nutsedge (Cyperus esculentus), read-out: Visual Growth Reduction (%) 14 Days After Application, CYPES
# [4] = DIGSA: crabgrass (Digitaria sanguinalis), read-out: Visual Growth Reduction (%) 14 Days After Application, DIGSA
# [5] = ECHCG: barnyardgrass (Echinochloa crus-galli), read-out: Visual Growth Reduction (%) 14 Days After Application, ECHCG
# [6] = ORYSA: rice (Oryza sativa), read-out: Visual Growth Reduction (%) 14 Days After Application, ORYSA
# [7] = SETFA: giant foxtail (Setaria faberi), read-out: Visual Growth Reduction (%) 14 Days After Application, SETFA
# [8] = SORVU: grain sorghum (Sorghum vulgare), read-out: Visual Growth Reduction (%) 14 Days After Application, SORVU
# [9] = TRZSS (wheat, Triticum aestivum), read-out: Visual Growth Reduction (%) 14 Days After Application, TRZSS
# [10] = ZEAMX: maize, corn (Zea mays), read-out: Visual Growth Reduction (%) 14 Days After Application, ZEAMX
# [11] = Triticum aestivum, TRZSS (wheat), read-out: Visual Growth Reduction (%) 14 Days After Application, TRZSS
compound,measurement,setting,value
"C=Cc1c(N)nc(-c2ccc(I)cc2)nc1C(=O)O [Compound 123, 6-Amino-2-(4-iodophenyl)-5-vinylpyrimidine-4-carboxylic acid]",pest or weed control at 70 g/ha,"[1]; ABUTH: velvetleaf (Abutilon theophrasti), 70 g ai/ha, post-emergent, read-out: Visual Growth Reduction (%) 14 Days After Application ABUTH",0 to 29%
same,pest or weed control at 140 g/ha,"[1]; ABUTH: velvetleaf (Abutilon theophrasti), 140 g ai/ha, post-emergent, read-out: Visual Growth Reduction (%) 14 Days After Application ABUTH",0 to 29%
same,pest or weed control at 70 g/ha,"[1]; AMARE: redroot pigweed (Amaranthus retroflexus), 70 g ai/ha, post-emergent, read-out: Visual Growth Reduction (%) 14 Days After Application AMARE",95 to 100%
same,pest or weed control at 140 g/ha,"[1]; AMARE: redroot pigweed (Amaranthus retroflexus), 140 g ai/ha, post-emergent, read-out: Visual Growth Reduction (%) 14 Days After Application AMARE",95 to 100%
same,pest or weed control at 70 g/ha,"[1]; BRSNN: oilseed-rape, canola (Brassica napus), 70 g ai/ha, post-emergent, read-out: Visual Growth Reduction (%) 14 Days After Application BRSNN",0 to 29%
same,pest or weed control at 140 g/ha,"[1]; BRSNN: oilseed-rape, canola (Brassica napus), 140 g ai/ha, post-emergent, read-out: Visual Growth Reduction (%) 14 Days After Application BRSNN",60 to 74%
same,pest or weed control at 70 g/ha,"[1]; CHEAL: lambsquarters (Chenopodium album), 70 g ai/ha, post-emergent, read-out: Visual Growth Reduction (%) 14 Days After Application CHEAL",0 to 29%
same,pest or weed control at 140 g/ha,"[1]; CHEAL: lambsquarters (Chenopodium album), 140 g ai/ha, post-emergent, read-out: Visual Growth Reduction (%) 14 Days After Application CHEAL",0 to 29%
same,pest or weed control at 70 g/ha,"[1]; EPHHL: wild poinsettia (Euphorbia heterophylla), 70 g ai/ha, post-emergent, read-out: Visual Growth Reduction (%) 14 Days After Application EPHHL",95 to 100%
same,pest or weed control at 140 g/ha,"[1]; EPHHL: wild poinsettia (Euphorbia heterophylla), 140 g ai/ha, post-emergent, read-out: Visual Growth Reduction (%) 14 Days After Application EPHHL",95 to 100%
same,pest or weed control at 70 g/ha,"[1]; HELAN: sunflower (Helianthus annuus), 70 g ai/ha, post-emergent, read-out: Visual Growth Reduction (%) 14 Days After Application HELAN",75 to 84%
same,pest or weed control at 140 g/ha,"[1]; HELAN: sunflower (Helianthus annuus), 140 g ai/ha, post-emergent, read-out: Visual Growth Reduction (%) 14 Days After Application HELAN",75 to 84%
same,pest or weed control at 70 g/ha,"[1]; VIOTR: wild pansy (Viola tricolor), 70 g ai/ha, post-emergent, read-out: Visual Growth Reduction (%) 14 Days After Application VIOTR",0 to 29%
same,pest or weed control at 140 g/ha,"[1]; VIOTR: wild pansy (Viola tricolor), 140 g ai/ha, post-emergent, read-out: Visual Growth Reduction (%) 14 Days After Application VIOTR",45 to 59%
same,pest or weed control at 70 g/ha,[2]; [3],0 to 29%
same,pest or weed control at 140 g/ha,[2]; [3],45 to 59%
same,pest or weed control at 70 g/ha,[2]; [4],0 to 29%
same,pest or weed control at 140 g/ha,[2]; [4],0 to 29%
same,pest or weed control at 70 g/ha,[2]; [5],75 to 84%
same,pest or weed control at 140 g/ha,[2]; [5],85 to 94%
same,pest or weed control at 70 g/ha,[2]; [6],0 to 29%
same,pest or weed control at 140 g/ha,[2]; [6],0 to 29%
same,pest or weed control at 70 g/ha,[2]; [7],0 to 29%
same,pest or weed control at 140 g/ha,[2]; [7],0 to 29%
same,pest or weed control at 70 g/ha,[2]; [8],30 to 44%
same,pest or weed control at 140 g/ha,[2]; [8],30 to 44%
same,pest or weed control at 70 g/ha,[2]; [9],0 to 29%
same,pest or weed control at 140 g/ha,[2]; [9],0 to 29%
same,pest or weed control at 70 g/ha,[2]; [10],45 to 59%
same,pest or weed control at 140 g/ha,[2]; [10],60 to 74%
same,melting point,,187 to 190 °C
"COC(=O)c1nc(-c2ccc(I)c(F)c2F)cc(N)c1Cl [Compound 129, Methyl 4-amino-3-chloro-6-(2,3-difluoro-4-iodophenyl)picolinate]",pest or weed control at 70 g/ha,"[1]; ABUTH: velvetleaf (Abutilon theophrasti), application rate 70 g ai/ha, read-out: Visual Growth Reduction (%) 14 Days After Application, ABUTH",95 to 100%
same,pest or weed control at 140 g/ha,"[1]; ABUTH: velvetleaf (Abutilon theophrasti), application rate 140 g ai/ha, read-out: Visual Growth Reduction (%) 14 Days After Application, ABUTH",95 to 100%
same,pest or weed control at 70 g/ha,"[1]; AMARE: redroot pigweed (Amaranthus retroflexus), application rate 70 g ai/ha, read-out: Visual Growth Reduction (%) 14 Days After Application, AMARE",95 to 100%
same,pest or weed control at 140 g/ha,"[1]; AMARE: redroot pigweed (Amaranthus retroflexus), application rate 140 g ai/ha, read-out: Visual Growth Reduction (%) 14 Days After Application, AMARE",95 to 100%
same,pest or weed control at 70 g/ha,"[1]; BRSNN: oilseed-rape, canola (Brassica napus), application rate 70 g ai/ha, read-out: Visual Growth Reduction (%) 14 Days After Application, BRSNN",85 to 94%
same,pest or weed control at 140 g/ha,"[1]; BRSNN: oilseed-rape, canola (Brassica napus), application rate 140 g ai/ha, read-out: Visual Growth Reduction (%) 14 Days After Application, BRSNN",95 to 100%
same,pest or weed control at 70 g/ha,"[1]; CHEAL: lambsquarters (Chenopodium album), application rate 70 g ai/ha, read-out: Visual Growth Reduction (%) 14 Days After Application, CHEAL",95 to 100%
same,pest or weed control at 140 g/ha,"[1]; CHEAL: lambsquarters (Chenopodium album), application rate 140 g ai/ha, read-out: Visual Growth Reduction (%) 14 Days After Application, CHEAL",95 to 100%
same,pest or weed control at 70 g/ha,"[1]; EPHHL: wild poinsettia (Euphorbia heterophylla), application rate 70 g ai/ha, read-out: Visual Growth Reduction (%) 14 Days After Application, EPHHL",95 to 100%
same,pest or weed control at 140 g/ha,"[1]; EPHHL: wild poinsettia (Euphorbia heterophylla), application rate 140 g ai/ha, read-out: Visual Growth Reduction (%) 14 Days After Application, EPHHL",95 to 100%
same,pest or weed control at 70 g/ha,"[1]; HELAN: sunflower (Helianthus annuus), application rate 70 g ai/ha, read-out: Visual Growth Reduction (%) 14 Days After Application, HELAN",75 to 84%
same,pest or weed control at 140 g/ha,"[1]; HELAN: sunflower (Helianthus annuus), application rate 140 g ai/ha, read-out: Visual Growth Reduction (%) 14 Days After Application, HELAN",85 to 94%
same,pest or weed control at 70 g/ha,"[1]; VIOTR: wild pansy (Viola tricolor), application rate 70 g ai/ha, read-out: Visual Growth Reduction (%) 14 Days After Application, VIOTR",95 to 100%
same,pest or weed control at 140 g/ha,"[1]; VIOTR: wild pansy (Viola tricolor), application rate 140 g ai/ha, read-out: Visual Growth Reduction (%) 14 Days After Application, VIOTR",95 to 100%
same,pest or weed control at 70 g/ha,[2]; [11],45 to 59%
same,pest or weed control at 140 g/ha,[2]; [11],45 to 59%
same,pest or weed control at 70 g/ha,[2]; [3],95 to 100%
same,pest or weed control at 70 g/ha,[2]; [4],60 to 74%
same,pest or weed control at 140 g/ha,[2]; [4],60 to 74%
same,pest or weed control at 70 g/ha,[2]; [5],75 to 84%
same,pest or weed control at 140 g/ha,[2]; [5],75 to 84%
same,pest or weed control at 70 g/ha,[2]; [6],0 to 29%
same,pest or weed control at 140 g/ha,[2]; [6],0 to 29%
same,pest or weed control at 70 g/ha,[2]; [8],95 to 100%
same,pest or weed control at 140 g/ha,[2]; [8],95 to 100%
same,pest or weed control at 70 g/ha,[2]; [10],60 to 74%
same,pest or weed control at 140 g/ha,[2]; [10],75 to 84%
same,melting point,,172 to 174 °C
